Measured values: ChEMBL document CHEMBL4804284

How the values were obtained:
Parameters in all cases: scale not given: the % may be the effect or the level left
[1] = target: Mast/stem cell growth factor receptor Kit (Homo sapiens) (UniProt P10721); test: Inhibition of DNA-tagged human KIT assessed as percent of control at 50000 nM by qPCR analysis relative to control
[2] = target: Mitogen-activated protein kinase kinase kinase kinase 1 (Homo sapiens) (UniProt Q92918); test: Inhibition of DNA-tagged human HPK1 assessed as percent of control at 50000 nM by qPCR analysis relative to control
[3] = tested on: Receptor-type tyrosine-protein kinase FLT3 (Homo sapiens), P36888 [K663Q]; test: Inhibition of DNA-tagged human FLT3 K663Q mutant assessed as percent of control at 50000 nM by qPCR analysis relative to control
[4] = target: Receptor-type tyrosine-protein kinase FLT3 (Homo sapiens) (UniProt P36888); test: Inhibition of DNA-tagged human FLT3 assessed as percent of control at 50000 nM by qPCR analysis relative to control
[5] = target: Fibroblast growth factor receptor 3 (Homo sapiens) (UniProt P22607); test: Inhibition of DNA-tagged human FGFR3 assessed as percent of control at 50000 nM by qPCR analysis relative to control
[6] = target: Mitogen-activated protein kinase 6 (Homo sapiens) (UniProt Q16659); test: Inhibition of DNA-tagged human ERK3 assessed as percent of control at 50000 nM by qPCR analysis relative to control
Chain of Mitogen-activated protein kinase 6 (Homo sapiens) (Q16659 whole entry): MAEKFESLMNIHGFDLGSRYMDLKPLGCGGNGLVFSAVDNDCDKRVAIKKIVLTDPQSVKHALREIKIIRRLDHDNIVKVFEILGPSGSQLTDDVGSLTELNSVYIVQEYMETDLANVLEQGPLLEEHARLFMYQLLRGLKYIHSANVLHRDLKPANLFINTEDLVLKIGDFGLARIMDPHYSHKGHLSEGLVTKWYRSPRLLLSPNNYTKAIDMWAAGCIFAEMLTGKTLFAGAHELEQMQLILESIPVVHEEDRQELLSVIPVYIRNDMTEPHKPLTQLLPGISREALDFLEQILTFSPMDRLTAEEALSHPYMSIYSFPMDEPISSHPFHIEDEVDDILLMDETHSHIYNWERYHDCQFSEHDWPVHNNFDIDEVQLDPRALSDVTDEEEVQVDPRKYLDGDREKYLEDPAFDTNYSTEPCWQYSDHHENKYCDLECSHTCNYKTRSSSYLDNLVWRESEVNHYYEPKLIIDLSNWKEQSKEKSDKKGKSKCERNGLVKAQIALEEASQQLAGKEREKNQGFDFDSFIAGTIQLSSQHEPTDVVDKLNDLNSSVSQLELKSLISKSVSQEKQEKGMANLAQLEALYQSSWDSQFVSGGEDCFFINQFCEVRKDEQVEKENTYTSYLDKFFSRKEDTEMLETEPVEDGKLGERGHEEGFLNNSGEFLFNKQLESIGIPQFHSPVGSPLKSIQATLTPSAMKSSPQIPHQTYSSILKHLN

[7] = target: Ephrin type-A receptor 7 (Homo sapiens) (UniProt Q15375); test: Inhibition of DNA-tagged human EPHA7 assessed as percent of control at 50000 nM by qPCR analysis relative to control
[8] = tested on: Epidermal growth factor receptor (Homo sapiens), P00533 [G719S]; test: Inhibition of DNA-tagged human EGFR G719S assessed as percent of control at 50000 nM by qPCR analysis relative to control
[9] = target: Death-associated protein kinase 2 (Homo sapiens) (UniProt Q9UIK4); test: Inhibition of DNA-tagged human DAPK2 assessed as percent of control at 50000 nM by qPCR analysis relative to control
[10] = target: Tyrosine-protein kinase CSK (Homo sapiens) (UniProt P41240); test: Inhibition of DNA-tagged human CSK assessed as percent of control at 50000 nM by qPCR analysis relative to control
[11] = target: Serine/threonine-protein kinase Chk2 (Homo sapiens) (UniProt O96017); test: Inhibition of DNA-tagged human CHEK2 assessed as percent of control at 50000 nM by qPCR analysis relative to control
[12] = target: Calcium/calmodulin-dependent protein kinase kinase 2 (Homo sapiens) (UniProt Q96RR4); test: Inhibition of DNA-tagged human CAMKK2 assessed as percent of control at 50000 nM by qPCR analysis relative to control
Chain of Calcium/calmodulin-dependent protein kinase kinase 2 (Homo sapiens) (Q96RR4 2-588 limits assumed): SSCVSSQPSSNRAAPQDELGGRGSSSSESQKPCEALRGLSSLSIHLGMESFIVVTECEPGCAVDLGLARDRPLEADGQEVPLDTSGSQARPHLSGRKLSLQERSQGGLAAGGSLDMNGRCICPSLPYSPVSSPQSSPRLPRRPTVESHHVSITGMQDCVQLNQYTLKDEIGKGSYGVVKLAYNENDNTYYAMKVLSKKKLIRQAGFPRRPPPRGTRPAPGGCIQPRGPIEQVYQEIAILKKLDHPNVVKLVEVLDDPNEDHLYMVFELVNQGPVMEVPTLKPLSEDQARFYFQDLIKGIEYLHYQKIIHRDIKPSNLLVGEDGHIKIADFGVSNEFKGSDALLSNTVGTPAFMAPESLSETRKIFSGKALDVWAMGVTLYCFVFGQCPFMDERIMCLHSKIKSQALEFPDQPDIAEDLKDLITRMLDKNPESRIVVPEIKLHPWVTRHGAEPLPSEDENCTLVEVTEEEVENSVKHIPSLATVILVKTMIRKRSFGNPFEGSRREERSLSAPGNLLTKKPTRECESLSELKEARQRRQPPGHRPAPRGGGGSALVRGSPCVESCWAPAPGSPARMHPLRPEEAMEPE

[13] = target: Protein-tyrosine kinase 6 (Homo sapiens) (UniProt Q13882); test: Inhibition of DNA-tagged human BRK assessed as percent of control at 50000 nM by qPCR analysis relative to control
[14] = tested on: Serine/threonine-protein kinase B-raf (Homo sapiens), P15056 [V600E]; test: Inhibition of DNA-tagged human BRAF V600E mutant assessed as percent of control at 50000 nM by qPCR analysis relative to control
[15] = target: Atypical kinase COQ8B, mitochondrial (Homo sapiens) (UniProt Q96D53); test: Inhibition of DNA-tagged human ADCK4 assessed as percent of control at 50000 nM by qPCR analysis relative to control
Chain of Atypical kinase COQ8B, mitochondrial (Homo sapiens) (Q96D53 whole entry): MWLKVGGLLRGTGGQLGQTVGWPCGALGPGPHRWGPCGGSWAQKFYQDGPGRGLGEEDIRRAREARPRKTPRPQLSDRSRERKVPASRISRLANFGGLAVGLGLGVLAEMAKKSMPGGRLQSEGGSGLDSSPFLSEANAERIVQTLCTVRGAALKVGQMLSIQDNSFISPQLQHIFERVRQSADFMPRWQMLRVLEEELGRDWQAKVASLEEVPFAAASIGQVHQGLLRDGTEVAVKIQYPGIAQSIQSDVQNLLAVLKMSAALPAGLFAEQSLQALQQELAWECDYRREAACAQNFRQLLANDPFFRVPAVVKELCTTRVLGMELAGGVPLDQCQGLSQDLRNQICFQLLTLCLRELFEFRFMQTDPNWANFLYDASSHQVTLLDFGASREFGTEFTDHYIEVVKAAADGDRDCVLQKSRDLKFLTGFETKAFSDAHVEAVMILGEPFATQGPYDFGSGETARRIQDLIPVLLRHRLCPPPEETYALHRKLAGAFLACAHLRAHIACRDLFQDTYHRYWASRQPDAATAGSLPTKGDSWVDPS

[16] = tested on: Tyrosine-protein kinase ABL1 (Homo sapiens), P00519 [F317I]; test: Inhibition of DNA-tagged non-phosphorylated human ABL1 F317I mutant assessed as percent of control at 50000 nM by qPCR analysis relative to control
[17] = target: LIM domain kinase 2 (Homo sapiens) (UniProt P53671); test: Inhibition of DNA-tagged human LIMK2 assessed as percent of control at 50000 nM by qPCR analysis relative to control
[18] = target: Mitogen-activated protein kinase kinase kinase kinase 2 (Homo sapiens) (UniProt Q12851); test: Inhibition of DNA-tagged human MAP4K2 assessed as percent of control at 50000 nM by qPCR analysis relative to control
Chain of Mitogen-activated protein kinase kinase kinase kinase 2 (Homo sapiens) (Q12851 whole entry): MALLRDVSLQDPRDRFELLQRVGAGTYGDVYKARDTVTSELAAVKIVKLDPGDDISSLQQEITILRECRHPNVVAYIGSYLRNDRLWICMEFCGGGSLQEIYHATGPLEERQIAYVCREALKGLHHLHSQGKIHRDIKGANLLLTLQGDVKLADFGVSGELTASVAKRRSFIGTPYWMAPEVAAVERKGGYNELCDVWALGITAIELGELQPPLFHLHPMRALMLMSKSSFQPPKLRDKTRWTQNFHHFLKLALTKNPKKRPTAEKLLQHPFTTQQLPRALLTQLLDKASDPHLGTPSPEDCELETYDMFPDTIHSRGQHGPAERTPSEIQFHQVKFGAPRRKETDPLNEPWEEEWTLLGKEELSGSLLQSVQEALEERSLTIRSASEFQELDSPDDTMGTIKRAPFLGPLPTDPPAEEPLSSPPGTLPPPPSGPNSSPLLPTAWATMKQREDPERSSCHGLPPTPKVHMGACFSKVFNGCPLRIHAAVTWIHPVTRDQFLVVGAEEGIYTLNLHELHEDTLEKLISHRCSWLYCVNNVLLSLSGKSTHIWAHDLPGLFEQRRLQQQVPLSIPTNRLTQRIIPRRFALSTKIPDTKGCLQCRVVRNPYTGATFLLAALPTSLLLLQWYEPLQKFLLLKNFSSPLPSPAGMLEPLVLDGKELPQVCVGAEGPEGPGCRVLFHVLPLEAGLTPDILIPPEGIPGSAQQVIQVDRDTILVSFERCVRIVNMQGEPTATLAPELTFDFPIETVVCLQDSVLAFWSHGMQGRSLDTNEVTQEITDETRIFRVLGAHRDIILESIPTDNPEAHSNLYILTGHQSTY

[19] = target: Serine/threonine-protein kinase 24 (Homo sapiens) (UniProt Q9Y6E0); test: Inhibition of DNA-tagged human MST3 assessed as percent of control at 50000 nM by qPCR analysis relative to control
[20] = target: Serine/threonine-protein kinase Nek3 (Homo sapiens) (UniProt P51956); test: Inhibition of DNA-tagged human NEK3 assessed as percent of control at 50000 nM by qPCR analysis relative to control
[21] = target: Serine/threonine-protein kinase Nek5 (Homo sapiens) (UniProt Q6P3R8); test: Inhibition of DNA-tagged human NEK5 assessed as percent of control at 50000 nM by qPCR analysis relative to control
[22] = target: Cyclin-dependent kinase 14 (Homo sapiens) (UniProt O94921); test: Inhibition of DNA-tagged human PFTK1 assessed as percent of control at 50000 nM by qPCR analysis relative to control
[23] = target: Serine/threonine-protein kinase pim-3 (Homo sapiens) (UniProt Q86V86); test: Inhibition of DNA-tagged human PIM3 assessed as percent of control at 50000 nM by qPCR analysis relative to control
[24] = target: Serine/threonine-protein kinase PLK4 (Homo sapiens) (UniProt O00444); test: Inhibition of DNA-tagged human PLK4 assessed as percent of control at 50000 nM by qPCR analysis relative to control
[25] = target: cGMP-dependent protein kinase 2 (Homo sapiens) (UniProt Q13237); test: Inhibition of DNA-tagged human PRKG2 assessed as percent of control at 50000 nM by qPCR analysis relative to control
[26] = target: Serine/threonine-protein kinase RIO1 (Homo sapiens) (UniProt Q9BRS2); test: Inhibition of DNA-tagged human RIOK1 assessed as percent of control at 50000 nM by qPCR analysis relative to control
Chain of Serine/threonine-protein kinase RIO1 (Homo sapiens) (Q9BRS2 whole entry): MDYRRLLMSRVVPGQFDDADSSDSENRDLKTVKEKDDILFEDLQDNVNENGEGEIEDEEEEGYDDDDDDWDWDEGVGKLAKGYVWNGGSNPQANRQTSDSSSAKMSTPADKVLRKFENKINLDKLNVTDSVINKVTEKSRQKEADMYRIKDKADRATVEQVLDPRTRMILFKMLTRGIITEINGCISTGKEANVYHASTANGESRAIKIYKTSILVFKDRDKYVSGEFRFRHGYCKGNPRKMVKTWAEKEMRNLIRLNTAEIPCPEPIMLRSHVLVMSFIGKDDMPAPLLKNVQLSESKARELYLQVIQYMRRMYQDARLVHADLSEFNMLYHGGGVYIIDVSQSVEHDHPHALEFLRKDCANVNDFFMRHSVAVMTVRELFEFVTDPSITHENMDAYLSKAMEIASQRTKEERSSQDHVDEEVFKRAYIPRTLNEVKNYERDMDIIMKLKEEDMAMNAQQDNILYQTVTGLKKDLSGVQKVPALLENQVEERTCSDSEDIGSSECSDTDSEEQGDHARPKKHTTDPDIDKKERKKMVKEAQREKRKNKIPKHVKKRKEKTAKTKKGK

[27] = target: Uncharacterized serine/threonine-protein kinase SBK3 (Homo sapiens) (UniProt P0C264); test: Inhibition of DNA-tagged human SgK110 assessed as percent of control at 50000 nM by qPCR analysis relative to control
Chain of Uncharacterized serine/threonine-protein kinase SBK3 (Homo sapiens) (P0C264 whole entry): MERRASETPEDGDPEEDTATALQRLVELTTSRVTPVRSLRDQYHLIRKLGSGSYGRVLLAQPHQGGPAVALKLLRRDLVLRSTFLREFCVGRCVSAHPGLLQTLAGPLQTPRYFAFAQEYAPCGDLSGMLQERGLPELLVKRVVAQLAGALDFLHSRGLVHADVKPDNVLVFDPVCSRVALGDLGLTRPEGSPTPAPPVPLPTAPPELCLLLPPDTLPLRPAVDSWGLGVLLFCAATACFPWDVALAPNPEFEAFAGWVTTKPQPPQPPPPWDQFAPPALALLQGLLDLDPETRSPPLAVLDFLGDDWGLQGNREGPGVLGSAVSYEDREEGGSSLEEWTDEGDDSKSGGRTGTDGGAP

[28] = target: Serine/threonine-protein kinase SIK1 (Homo sapiens) (UniProt P57059); test: Inhibition of DNA-tagged human SIK assessed as percent of control at 50000 nM by qPCR analysis relative to control
[29] = target: Serine/threonine-protein kinase 36 (Homo sapiens) (UniProt Q9NRP7); test: Inhibition of DNA-tagged human STK36 assessed as percent of control at 50000 nM by qPCR analysis relative to control
[30] = target: Angiopoietin-1 receptor (Homo sapiens) (UniProt Q02763); test: Inhibition of DNA-tagged human TIE2 assessed as percent of control at 50000 nM by qPCR analysis relative to control
Chain of Angiopoietin-1 receptor (Homo sapiens) (Q02763 whole entry): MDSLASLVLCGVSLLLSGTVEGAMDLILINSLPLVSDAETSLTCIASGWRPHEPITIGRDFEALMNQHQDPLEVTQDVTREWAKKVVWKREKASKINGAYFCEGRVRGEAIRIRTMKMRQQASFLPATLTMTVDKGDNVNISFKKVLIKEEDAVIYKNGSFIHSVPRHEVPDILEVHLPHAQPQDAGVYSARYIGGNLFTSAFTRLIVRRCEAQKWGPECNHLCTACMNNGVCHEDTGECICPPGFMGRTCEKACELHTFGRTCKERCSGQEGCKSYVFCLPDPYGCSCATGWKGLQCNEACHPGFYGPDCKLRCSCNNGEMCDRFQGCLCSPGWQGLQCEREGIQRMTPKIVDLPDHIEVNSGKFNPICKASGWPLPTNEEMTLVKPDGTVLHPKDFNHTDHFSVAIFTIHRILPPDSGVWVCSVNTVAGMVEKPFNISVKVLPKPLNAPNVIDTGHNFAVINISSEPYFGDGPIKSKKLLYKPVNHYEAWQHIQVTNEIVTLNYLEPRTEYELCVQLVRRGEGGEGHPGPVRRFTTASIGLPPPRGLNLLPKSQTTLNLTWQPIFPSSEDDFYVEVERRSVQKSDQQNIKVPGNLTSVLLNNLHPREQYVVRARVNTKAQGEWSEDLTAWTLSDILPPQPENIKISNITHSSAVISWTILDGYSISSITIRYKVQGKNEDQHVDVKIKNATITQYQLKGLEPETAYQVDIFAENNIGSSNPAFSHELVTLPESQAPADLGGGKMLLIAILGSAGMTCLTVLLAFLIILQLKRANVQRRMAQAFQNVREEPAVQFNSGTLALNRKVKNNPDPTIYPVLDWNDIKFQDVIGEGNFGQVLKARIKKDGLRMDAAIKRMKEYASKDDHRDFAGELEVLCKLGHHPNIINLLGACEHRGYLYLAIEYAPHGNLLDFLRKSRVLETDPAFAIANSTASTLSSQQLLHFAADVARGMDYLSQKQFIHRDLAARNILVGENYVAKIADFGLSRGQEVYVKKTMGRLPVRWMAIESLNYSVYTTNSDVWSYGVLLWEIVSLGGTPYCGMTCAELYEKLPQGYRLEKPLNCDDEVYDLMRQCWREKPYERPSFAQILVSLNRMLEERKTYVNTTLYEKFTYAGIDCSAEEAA

Structure (SMILES): CN1C(=O)/C(=C2/C(=O)Nc3ccccc32)c2ccccc21
- Activity [1]: 94%
- Activity [2]: 93%
- Activity [3]: 91%
- Activity [4]: 79%
- Activity [5]: 100%
- Activity [6]: 100%
- Activity [7]: 100%
- Activity [8]: 94%
- Activity [9]: 85%
- Activity [10]: 100%
- Activity [11]: 100%
- Activity [12]: 100%
- Activity [13]: 100%
- Activity [14]: 72%
- Activity [15]: 78%
- Activity [16]: 100%
- Activity [17]: 100%
- Activity [18]: 92%
- Activity [19]: 88%
- Activity [20]: 92%
- Activity [21]: 96%
- Activity [22]: 94%
- Activity [23]: 79%
- Activity [24]: 79%
- Activity [25]: 94%
- Activity [26]: 87%
- Activity [27]: 100%
- Activity [28]: 93%
- Activity [29]: 90%
- Activity [30]: 100%
